Experiments:
[1] = test system: OvCar8 spheroids; experiment: 3D spheroid viability (RealTime-Glo); type: cell-based, human; conditions: OvCar8 3D spheroids, 48 h
Description: Tumor complexity is represented more realistically in 3D spheroid models than in 2D monolayer models.
OvCar8 cells (8000/well) were seeded into an Ultra-Low-Attachment plate (Corning #4520) and grown for 96 h. Then, spheroids were treated with the drugs for 48 h. Cell cytotoxicity was assessed using the CellTox Green Cytotoxicity Assay (Promega #G8731) 48 h after treatment with NYONE ([…], 485Ex/520Em). Filters: BFEx/GreenEm (530/43 nm); BlueEx (475/28 nm)/GreenEm (530/43 nm). Viability and apoptosis were determined by RealTime-Glo (460Em) (Promega #G9711) and caspase-Glo 3/7 (565Em) (Promega #G8090) according to the manufacturer’s instructions using a microplate reader (Spark, Tecan). Relative caspase activity: caspase activity divided by the viability (normalized to control). For live-dead staining, cells were grown and treated as described above. Then, 80% of the medium was removed and replaced with propidium iodide (PI) (15 μM), calcein-AM (0.2 μM), and Hoechst 33342 (1.8 μM) in medium for 3 h and imaged by NYONE ([…]). Filters: BFEx/GreenEm(530/43 nm); Hoechst 33342: UVEx (377/50 nm)/BlueEm (452/45 nm); calcein-AM: BlueEx (475/28 nm)/GreenEm (530/43 nm); propidium iodide: LimeEx(562/40 nm)/RedEm(628/32 nm). All experiments were performed in biological triplicates. PBS was used as the negative control, and cisplatin and P8-D6 as the positive control.

[2] = set-up: method as in not given; conditions: human liver microsomes; ref not given; cited from earlier work
[3] = cited from earlier work; for CL / Oral bioavailability / Protein binding / t 1/2 / V ss: literature values, ref numbers not given
[4] = test system: CYP3A4; set-up: method as in not given; conditions: metabolized by CYP3A4; ref not given; cited from earlier work

N.N.[Cl][Pt][Cl] [cisplatin, reference compound]
IC50 [1]: 13.5 µM

CC[C@@]1(O)C(=O)OCc2c1cc1n(c2=O)Cc2cc3c(CN(C)C)c(O)ccc3nc2-1 [topotecan]
mean ratio of N-demethylated metabolite to topotecan [2]: approximately 3%
CL [3]: 14–34 L/(h m^2)
Oral bioavailability [3]: 32–44%
Protein binding [3]: 7–35%
t 1/2 [3]: 3.1 to 4 h

O=C(c1cc(Cc2n[nH]c(=O)c3ccccc23)ccc1F)N1CCN(C(=O)C2CC2)CC1 [Olaparib, olaparib]
rate of three major metabolites [4]: 8–12%

CCc1c2c(nc3ccc(OC(=O)N4CCC(N5CCCCC5)CC4)cc13)-c1cc3c(c(=O)n1C2)COC(=O)[C@]3(O)CC [irinotecan]
Protein binding [3]: 65%

COc1cccc2c1C(=O)c1c(O)c3c(c(O)c1C2=O)C[C@@](O)(C(=O)CO)C[C@@H]3O[C@H]1C[C@H](N)[C@H](O)[C@H](C)O1 [doxorubicin]
drug eliminated ([3]; after 7 days, ref not given): 25–45%
CL [3]: 12–34 L/(h m^2)
Oral bioavailability [3]: 5%
Protein binding [3]: 50–85%
V ss [3]: 809–1214 L/m^2
t 1/2 [3]: 17.3 to 26 h

COc1cc2ncnc(Nc3ccc(F)c(Cl)c3)c2cc1OCCCN1CCOCC1 [gefitinib]
Protein binding [3]: > 97%

COc1cc([C@@H]2c3cc4c(cc3[C@@H](O[C@@H]3O[C@@H]5CO[C@@H](C)O[C@H]5[C@H](O)[C@H]3O)[C@H]3COC(=O)[C@H]23)OCO4)cc(OC)c1O [etoposide]
CL [3]: 1–2 L/(h m^2)
Oral bioavailability [3]: 50 (40–75) %
Protein binding [3]: 94–95%
V ss [3]: 7.1 (5–17) L/m^2
t 1/2 [3]: 6.4 h

CC[C@@]1(O)C(=O)OCc2c1cc1n(c2=O)Cc2c-1nc1cc3c(cc1c2CN1CCN(C)CC1)OCCO3 [lurtotecan]
CL [3]: 60 L/(h m^2)
Oral bioavailability [3]: 11.3 ± 5.2%
Protein binding [3]: 90%
V ss [3]: 190 L/m^2
t 1/2 [3]: 3.7 h

Reference: article PMC11997890, “In Vivo and In Vitro Pharmacokinetic Studies of a Dual Topoisomerase I/II Inhibitor” (ACS Pharmacology & Translational Science, 2025)
